# From PubChem BioAssay (NCI)
# Several values for one entry are separate records, joined by “and”; a condition that tells them apart may be missing. Equal values may be shown once.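 Assay format: 96-well plates, 48-hour exposure. GI50 = concentration required for 50% inhibition of growth. TGI: total growth inhibition.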
# Experiments:
# Assay in all cases: inhibition of tumour cell growth, NCI panel, 48 h
# HCT-15 colon = tested on: HCT-15 colon
# LXFL 529 NSCLC = tested on: LXFL 529 NSCLC
# SF-295 CNS = tested on: SF-295 CNS
# LOX IMVI melanoma = tested on: LOX IMVI melanoma
# UACC-257 melanoma = tested on: UACC-257 melanoma
# HOP-18 NSCLC = tested on: HOP-18 NSCLC
# U251 CNS = tested on: U251 CNS
# SNB-19 CNS = tested on: SNB-19 CNS
# XF 498 CNS = tested on: XF 498 CNS
# HL-60(TB) leukemia = tested on: HL-60(TB) leukemia
# DMS 114 small cell lung = tested on: DMS 114 small cell lung
# MCF7 breast = tested on: MCF7 breast
Structure (SMILES),TGI (HCT-15 colon) [µM],TGI (LXFL 529 NSCLC) [µM],TGI (SF-295 CNS) [µM],TGI (LOX IMVI melanoma) [µM],TGI (UACC-257 melanoma),TGI (HOP-18 NSCLC) [µM],TGI (U251 CNS) [µM],TGI (SNB-19 CNS) [µM],TGI (XF 498 CNS) [µM],TGI (HL-60(TB) leukemia) [µM],TGI (DMS 114 small cell lung) [µM],GI50 (HCT-15 colon),GI50 (MCF7 breast),TGI (MCF7 breast) [µM],GI50 (SF-295 CNS),GI50 (LOX IMVI melanoma) [µM],GI50 (UACC-257 melanoma),GI50 (U251 CNS),GI50 (SNB-19 CNS),GI50 (HL-60(TB) leukemia)
OCC1OC(NO)C(O)C(O)C1O (configuration not stated),> 100,> 100,> 100,> 100,> 100 µM,> 100,> 100,> 100,> 100,> 100,,,,,,,,,,
COc1ccc(C2[C@@H](Cl)C(=O)N2c2ccc(OC)cc2)cc1 (some centres not stated),,> 100,> 100,,> 100 µM,,> 100,> 100,,> 100,> 100,,,,,,,,,
O=S1(=O)CC#CC[C@@H](CO)[C@@H](CO)CC#CC1,> 100,> 100,> 100,> 100,> 100 µM,,> 100,,> 100,> 100,,,,,,,,,,
CC1=NN(c2ccccc2)C(=O)C1N=Nc1ccc(Br)cc1C (configuration not stated),> 100,> 100,> 100,,> 100 µM,> 100,> 100,> 100,,> 100,> 100,,,,,,,,,
O=c1[nH]c(C2CCCCC2)nc2ccc(Cl)cc12,> 100,> 100,> 100,,> 100 µM,,> 100,> 100,,,> 100,,,,,,,,,
CCn1c(C)nc([N+](=O)[O-])c1Sc1ncc[nH]1,,> 100,> 100,42.2,> 100 µM,73.8,> 100,> 100,> 100,,> 100,,,,,,,,,
Cc1ccccc1C1SCc2nc3ccccc3n21 (configuration not stated),,,> 100,,> 100 µM,> 100,> 100,> 100,,> 100,> 100,,,,,,,,,
O/N=C1/C(=C/c2ccc(Br)cc2)CCCC1C(NO)c1ccc(Br)cc1 (configuration not stated),31.8,27.9,30.4,35.5,33.3 µM,33.8,45.3,32,,> 100,29.6,,,,,,,,,
Cc1c2cc[n+](C)cc2c(C)c2c1[nH]c1ccc(OC(C)(C)C)cc12,> 100,> 100,> 100,> 100,> 100 µM,> 100,> 100,,,> 100,> 100,,,,,,,,,
Cc1cc(NCCCCCCCCNc2cc(C)nc3cc(N(C)C)ccc23)c2ccc(N(C)C)cc2n1,> 100,16,30.2,8.99,23.1 µM,,9.45,61.6,7.3,6.11,6.63,,,,,,,,,
CN1C(=O)CC(CC(=O)C2CCCCC2=O)CC1=O (configuration not stated),,> 100,> 100,> 100,> 100 µM,> 100,> 100,> 100,> 100,> 100,> 100,,,,,,,,,
Cc1cc(S(=O)(=O)Nc2nc3ccccc3s2)c(SCc2ccccc2)cc1Cl,30.8,,32.4,24.5,45.9 µM,,26.4,> 100,,45.4,,15.2 µM,31 µM,> 100,11 µM,12.1,18.3 µM,13.6 µM,28.2 µM,17.3 µM
Cc1cc(C(=O)NOCCO)c(Nc2ccc(I)cc2F)n(C)c1=O,> 100,,> 100,> 100,0.0128 µM and < 0.0197 µM,,> 100,> 100,,> 49.6,,> 3.01 µM and 2.64 µM,> 100 µM,> 100,> 100 µM,,0.00186 µM and < 0.01 µM,> 10 µM and 2.81 µM,6.08 µM,0.00173 µM and < 0.01 µM
OC(CBr)C(O)C(O)C(O)CBr (configuration not stated),> 100,,> 100,> 100,> 100 µM,> 100,> 100,> 100,> 100,> 67.5,> 100,> 100 µM,13.7 µM and 40.1 µM,> 100,23.2 µM and > 72.9 µM,,,,36 µM and > 100 µM,
COc1cccc(/C=C/C(=O)c2cc3c(N)c(C(=O)Nc4ccccc4)sc3nc2C)c1,3.37,,> 50,1.64,8.97 µM,,1.72,5.58,,2.72,,1.16 µM,1.69 µM,8.85,6.27 µM,0.887,1.9 µM,0.897 µM,1.52 µM,1.02 µM
Nc1[nH]c(=S)[nH]c(=O)c1N=Nc1c(Br)cc(S(N)(=O)=O)cc1Br,> 100,,> 100,> 100,> 100 µM,,> 100,> 100,,> 100,,,,> 100,,,,,,
O=C(C#Cc1ccccc1)N1CCCCC1,> 100,,> 100,> 100,> 100 µM,,> 100,> 100,,> 100,,,,> 100,,,,,,
CCN(Cc1c(F)cccc1C(F)(F)F)c1ccc(CO)c(Cl)c1,27.1,,1.12,33.3,0.187 µM,,17.5,29.1,,36.9,,12.8 µM,0.156 µM,15.7,,18.1,< 0.0407 µM,0.623 µM,14.9 µM,15.9 µM
O=C(Nc1ccn(C2CCC(COC(c3ccccc3)(c3ccccc3)c3ccccc3)O2)c(=O)n1)c1ccccc1 (configuration not stated),11.2,,5.9,7.02,17.9 µM,,13.8,14.8,,4.7,,,,10.2,,,,,,
COc1ccc(NC(=O)CC2SC(=Nc3ccc(Cl)cc3C)NC2=O)c([N+](=O)[O-])c1 (configuration not stated),> 100,> 100,> 100,> 100,> 100 µM,,> 100,> 100,,> 100,> 100,,,,,,,,,
Cc1c(-c2c(F)cc(C(N)=O)c3[nH]c4c(c23)CC[C@H](C(C)(C)O)C4)cccc1-n1c(=O)c2cccc(F)c2n(C)c1=O,> 100,,39.6,> 100,> 100 µM,,> 100,> 100,,3.22,,2.7 µM,1.04 µM,> 100,4.36 µM,3.13,2.9 µM,6.07 µM,7.22 µM,0.971 µM
